In patent US6825233B2, “Compounds having retinoid-like activity” (Bristol-Myers Squibb Company, priority 2001, dated 2004):
Like-named read-outs stand apart in the source and are kept apart here.

Legend:
GAL-RARβ = biological target: T1, GAL-RARβ (Homo sapiens, UniProt P10826); assay: Transactivation assay, HeLa cells with GAL-RARβ and (17 mer)x5-Glob-Luc reporter; assay type: cell-based; conditions: stable HeLa cell line, luciferase reporter, 24 hours
T1 construct: expressed in transfected cells
T1 sequence (P10826 183-417 limits assumed): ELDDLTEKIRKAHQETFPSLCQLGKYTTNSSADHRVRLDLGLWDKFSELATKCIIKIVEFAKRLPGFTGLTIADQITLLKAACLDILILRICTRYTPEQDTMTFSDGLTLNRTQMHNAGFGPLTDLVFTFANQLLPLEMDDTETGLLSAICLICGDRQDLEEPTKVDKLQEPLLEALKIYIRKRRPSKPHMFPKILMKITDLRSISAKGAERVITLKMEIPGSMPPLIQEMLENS

HT3 = assay: Growth assay, [3H]-thymidine incorporation, HT3; assay type: cell-based; conditions: Homo sapiens
Procedure: (§1) Principle of the assay: The proliferation of the cells was measured by the incorporation of [^3H]-Thymidine in the DNA of dividing cells.
(§2) Protocol: The number of cells which was plated has been primarily defined to avoid the cells reaching confluence before the end of the experiment duration (T47D & HT3, 750 cells/well; H3396, 200 cells/well of 96 well plates). The first day, the cells were plated in 96 well plates and incubated overnight at 37° C. (in […]; CO2, 5%), allowing the cells adhering to the support. The next day, the compounds were added to the cells and incubated for 3 or 6 days (note: for the 6-day incubation, the medium was replaced at Day3). At the end of the treatment, 10 μl of [^3H]-thymidine (final concentration of 0.4 μCi/well) were added for 4 hours at 37° C., the medium was finally removed, the cells trypsinized and harvested under vacuum on GF/B glass fiber filters. After 3 washes with distilled water, the filter were dried and counted in a scintillation counter after adding 50 μl of Microscint (Packard) to each filter. The percentage of growth inhibition was calculated by using DMSO as reference, which is the vehicle of the compounds. Growth inhibition is reported as IC50's in nM

T47D = assay: Growth assay, [3H]-thymidine incorporation, T47D; assay type: cell-based; conditions: Homo sapiens, T47D cells, 3 or 6 days incubation, read-out: Cell Growth Inhibition (IC50, nM) T47D
Procedure: as §1, §2

RARβ = biological target: T2, RARβ (Homo sapiens, UniProt P10826); assay: Competition binding assay using Yttrium SPA beads, RARβ
T2 construct: made in house; host or cells: E. coli BL21 (DE3)
T2 sequence (P10826 183-417 limits assumed): T1 sequence (P10826 183-417 limits assumed)

RARγ = biological target: T3, RARγ (Homo sapiens, UniProt P13631); assay: Competition binding assay using Yttrium SPA beads, RARγ
T3 construct: made in house; host or cells: E. coli BL21 (DE3)
T3 sequence (P13631 185-419 limits assumed): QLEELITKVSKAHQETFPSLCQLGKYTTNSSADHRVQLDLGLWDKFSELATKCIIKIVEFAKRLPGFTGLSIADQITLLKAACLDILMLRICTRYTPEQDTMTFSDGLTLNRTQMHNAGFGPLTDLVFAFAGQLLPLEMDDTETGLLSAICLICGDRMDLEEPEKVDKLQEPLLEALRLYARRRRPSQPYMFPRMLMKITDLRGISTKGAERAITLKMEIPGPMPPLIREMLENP

GAL-RARγ = biological target: T4, GAL-RARγ (Homo sapiens, UniProt P13631); assay: Transactivation assay, HeLa cells with GAL-RARγ and (17 mer)x5-Glob-Luc reporter; assay type: cell-based; conditions: stable HeLa cell line, luciferase reporter, 24 hours
T4 construct: expressed in transfected cells
T4 sequence (P13631 185-419 limits assumed): T3 sequence (P13631 185-419 limits assumed)

RARα = biological target: T5, RARα (Homo sapiens, UniProt P10276); assay: Competition binding assay using Yttrium SPA beads, RARα
T5 construct: made in house; host or cells: E. coli BL21 (DE3)
T5 sequence (P10276 183-417 limits assumed): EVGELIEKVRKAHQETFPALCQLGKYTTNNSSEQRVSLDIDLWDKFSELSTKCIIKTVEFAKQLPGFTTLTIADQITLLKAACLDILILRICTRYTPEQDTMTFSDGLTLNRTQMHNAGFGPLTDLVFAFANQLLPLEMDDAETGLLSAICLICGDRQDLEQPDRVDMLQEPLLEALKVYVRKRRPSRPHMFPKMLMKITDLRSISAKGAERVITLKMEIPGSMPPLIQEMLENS

GAL-RARα = biological target: T6, GAL-RARα (Homo sapiens, UniProt P10276); assay: Transactivation assay, HeLa cells with GAL-RARα and (17 mer)x5-Glob-Luc reporter; assay type: cell-based; conditions: stable HeLa cell line, luciferase reporter, 24 hours
T6 construct: expressed in transfected cells
T6 sequence (P10276 183-417 limits assumed): T5 sequence (P10276 183-417 limits assumed)

[1] = HT-3, HT3 cells, [3H]-thymidine incorporation, 3 or 6 days incubation, read-out: Cell Growth Inhibition (IC50, nM) HT3

SMILES | EC50 (GAL-RARβ) [nM] | IC50 (HT3; [1]) [nM] | IC50 (T47D) [nM] | Kd (RARβ) [nM] | Kd (RARγ) [nM] | EC50 (GAL-RARγ) [nM] | Kd (RARα) [nM] | EC50 (GAL-RARα) [nM] | IC50 (HT3; HT-3, read-out: Cell Growth Inhibition (IC50, nM) HT3) [nM]
CC1(C)Cc2ccc(O)cc2-c2cc(/C=C/c3ccc(C(=O)O)cc3)ccc21 [Compound 8] | 1.76 | 1160 | 4.8 | 18.6 | 52.8 | 47 | 8.3 | 13.5 | 
COc1ccc2c(c1)-c1cc(/C=C/c3ccc(C(=O)O)cc3)ccc1C(C)(C)C2 [Compound 10] | 0.005 | < 0.01 | < 0.01 | 1.6 | 10.6 | 1.9 | 1.1 | 0.02 | 
CC1=C(/C=C/C(C)=C/C=C/C(C)=C/C(=O)O)C(C)(C)CCC1 [Retinoic acid, reference compound] |  |  | 6.5 |  |  |  |  |  | 1
